Experimental data reported in US11377473B2, “Albumin-binding prodrugs of auristatin E derivatives” (priority 2017, dated 2022).

Columns and labels:
[1] = tested on: human ovarian carcinoma model A2780; test: Human ovarian carcinoma model A2780, large tumors; assay type: in vivo, NMRI nude mice
Method: Feed and water were provided ad libitum. […] Identification used: ear mark and cage labels. […] Tumor volumes were calculated according to the following equation: […]
The evaluation of auristatin E and the albumin-binding auristatin E derivative AE-Keto-Sulf07 in a human ovarian carcinoma model A2780 was carried out as described in the general procedure for cell-line-derived xenograft models.
The evaluation of auristatin E and the albumin-binding auristatin E derivative AE-Ester-Sulf07 in a human ovarian carcinoma model A2780 was carried out as described in the general procedure for cell-line-derived xenograft models.

[2] = Dose finding studies
Method: Female immunodeficient NMRI nude mice, from Janvier, France, received 5×10^6-10^7 cultured cancer cell in buffer/Matrigel (1:1) inoculated subcutaneously, until tumors were palpable and had reached the desired volume (for xenograft studies).
Animals were kept in cages (Macrolon Type-II wire-mesh) with temperature maintained at 22±1° C., relative humidity of 50 f 10% and an air change rate of 60-fold per hour. Mice were kept under a 12-hour light/12-hour dark, artificial light cycle. The animals were fed with autoclaved Ssniff NM (Soest, Germany), and had access to sterile filtered and acidified (pH 4.0) tap water which was changed twice weekly. Feed and water were provided ad libitum. […] The health of the animals was examined at the start of the experiment and twice per day during the experiment. Identification used: ear mark and cage labels. Starting on day 0, animals were weighed two or three times per week and mean body weight per group was related to the initial value in percent to calculate the body weight change (BWC). Tumor diameters were determined by a two-dimensional measurement with a caliper on the day of randomization (Day 0) and then twice or three times per week. Tumor volumes were calculated according to the following equation:
Tumor Vol [mm^3]=1 [mm]×w^2 [mm^2]×0.5, where “1” is the length and “w” is width of the tumor. The relative volume of an individual tumor on day X (RTVx) was calculated by dividing the absolute individual tumor volume [mm^3] of the respective tumor on day X (Tx) by the absolute individual tumor volume of the same tumor on the day of randomization multiplied by 100%. Schedules were applied to the extent that animal welfare policies allow. Termination of individual mice was carried out at tumor volume >1500 mm^3 (unilateral) or when ulceration was observed. Statistical comparison was performed with the Mann-Whitney U-test. Dose Finding Studies of Auristatin E and the Albumin-Binding Auristatin E Derivatives AE-Keto-Sulf07 and AE-Ester-Sulf07.
Stock solutions were prepared as follows: • 1) 3 mice per group, 26 g average weight on day of randomization: 0.3, 0.6 or 1.2 mg/kg dose auristatin E TFA salt (AE equiv.) dosed once weekly for 4 weeks on day 0, 6, 13, 20≡0.35-1.41 mg/kg≡7.1-28.3 μg/20 g mouse. Sample preparation: 8.5 mg weighed in a 50 mL vial dissolved in 30.0 mL 25/75 tert-butanol/10 mM sodium phosphate buffer, 5% sucrose—pH 7.0; 0.2-0.8 mL were aliquoted in 2 mL vials depending on the final desired final dose. The vials were frozen for 1 h at −40° C. and lyophilized at −20° C. over ˜36 h and then stoppered. On day of injection, the lyophilized samples were reconstituted with 0.8 mL of 10 mM sodium phosphate buffer, 20% propylene glycol—pH 7.0. • 2) 3 mice per group, 26 g average weight on day of randomization: 1.2 and 2.4 mg/kg AE-Keto-Sulf07 (AE equiv.) dosed twice weekly for 4 weeks ≡1.94-3.87 mg/kg≡38.7 and 77.4 μg/20 g mouse. Sample preparation: 11.0 mg weighed in a 30 mL vial dissolved in 14.2 mL 50/50 tert-butanol/10 mM sodium phosphate buffer, 5% sucrose—pH 7.0; 0.4-0.8 mL were aliquoted in 2 mL vials depending on the final desired final dose. The vials were frozen for 1 h at −40° C. and lyophilized at −20° C. over ˜36 h and then stoppered. On the day of injection, the lyophilized samples were reconstituted with 0.8 mL of 10 mM sodium phosphate buffer, 20% propylene glycol—pH 7.0. • 3) 3 mice per group, 26 g average weight on day of randomization: 1.2, 1.6 or 2.0 mg/kg AE-Ester-Sulf07 (AE equiv.) dosed twice weekly for 4 weeks on day≡2.18-3.64 mg/kg≡43.7-72.8 μg/20 g mouse. Sample preparation: 19.2 mg weighed in a 30 mL vial dissolved in 26.3 mL 50/50 tert-butanol/10 mM sodium phosphate buffer, 5% sucrose—pH 7.0; 0.48-0.8 mL were aliquoted in 2 mL vials depending on the final desired final dose. The vials were frozen for 1 h at −40° C. and lyophilized at −20° C. over ˜36 h and then stoppered.

[3] = molecular target: T1, albumin in human plasma (Homo sapiens, UniProt P02768); test: Binding kinetics to albumin in human plasma; assay type: in vitro ADME; details: 37° C.
T1 construct: the plasma was separated from the red blood cells by spinning it down for 3 minutes at 3000 RPM; from tissue; host or cells: fresh plasma of a healthy human volunteer
T1 sequence (P02768 25-609): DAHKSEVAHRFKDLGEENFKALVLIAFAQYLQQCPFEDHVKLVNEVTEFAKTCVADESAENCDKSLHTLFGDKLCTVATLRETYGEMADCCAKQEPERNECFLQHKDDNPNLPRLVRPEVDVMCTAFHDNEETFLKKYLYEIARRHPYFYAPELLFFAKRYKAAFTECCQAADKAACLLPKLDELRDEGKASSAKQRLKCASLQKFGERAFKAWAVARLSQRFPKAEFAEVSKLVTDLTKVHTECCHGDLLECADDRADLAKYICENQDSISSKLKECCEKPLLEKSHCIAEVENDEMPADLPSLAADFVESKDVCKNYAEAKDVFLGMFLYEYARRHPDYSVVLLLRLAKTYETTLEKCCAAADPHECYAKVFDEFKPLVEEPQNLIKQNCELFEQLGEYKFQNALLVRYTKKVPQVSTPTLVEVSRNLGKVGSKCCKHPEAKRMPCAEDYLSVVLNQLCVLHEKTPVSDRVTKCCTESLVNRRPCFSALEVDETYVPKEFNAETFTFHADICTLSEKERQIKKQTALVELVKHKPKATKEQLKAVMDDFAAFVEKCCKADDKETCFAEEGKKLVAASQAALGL
Method: Whole blood was taken from a healthy human volunteer (EDTA collection tube), the plasma was separated from the red blood cells by spinning it down for 3 minutes at 3000 RPM. The plasma was then used directly, within 2 hours of the blood donation. 360 μL of the appropriate plasma was used for each binding experiment.
All binding experiments were carried out in triplicate. The plasma was incubated at 37° C. using an Eppendorf Thermomixer C. After 30 minutes incubation 40 μL of the appropriate albumin-binding auristatin-Sulf07 derivative was dissolved in its reconstitution solution and added to the plasma. Samples (40 μL) were taken after 15 seconds, 2 minutes, 4 minutes, 8 minutes and 15 minutes (5 samples).
The samples were immediately added to 160 μL of acetonitrile (containing 4 μg/mL of 'MMAE as an internal standard) and vortexed for 1 minute.
The solutions were pipetted into an Impact plasma precipitation plate (shaken for 60 seconds) and filtered by vacuum onto a 96 well plate. Remaining drug was determined by LCMS quantification (method 5, 30 μL injection) using MRM MS2 negative mode (multiple reaction monitoring). Parent ions: auristatin F (Mass-744.8), AE-Keto-Sulf07 (Mass-1135.1) and AE-Ester-Sulf07 (Mass-1283.2). Percentage of binding was determined by comparing the AUC for AE-Keto-Sulf07 and AE-Ester-Sulf07 to calibration curves generated by LCMS for each compound.

[4] = 1.9 mg/kg eight times twice weekly

## CC[C@H](C)[C@@H]([C@@H](CC(=O)N1CCC[C@H]1[C@H](OC)[C@@H](C)C(=O)N[C@H](C)C(=NNC(=O)c1ccc(NC(=O)CCCCCN2C(=O)C=CC2=O)cc1S(=O)(=O)O)c1ccccc1)OC)N(C)C(=O)[C@@H](NC(=O)[C@H](C(C)C)N(C)C)C(C)C [AE-Keto-Sulf07, 2-(2-((R)-2-((2R,3R)-3-((S)-1-((3R,4S,5S)-4-((S)-2-((S)-2-(dimethylamino)-3-methylbutanamido)-N,3-dimethylbutanamido)-3-methoxy-5-methylheptanoyl)pyrrolidin-2-yl)-3-methoxy-2-methylpropanamido)-1-phenylpropylidene)hydrazine-1-carbonyl)-5-(6-(2,5-dioxo-2,5-dihydro-1H-pyrrol-1-yl)hexanamido)benzenesulfonic acid]
[1]; 4.5 mg/kg eight times twice weekly
  body weight: only a slightly reduced body weight growth compared to the control
[1]; 4.5 mg/kg eight times twice weekly, day 26 until end of study on day 103
  tumor response: complete remission (complete remission <10%)
[1]; 4.5 mg/kg versus auristatin E 0.3 mg/kg, eight times twice weekly, day 22 to day 40
  p, antitumor effect versus auristatin E: < 0.001
[2]; 6.5 mg/kg biweekly in later xenograft studies, treatment stopped after five injections
  tolerability: above the MTD
[2]; all doses tested (1.2 and 2.4 mg/kg), injected eight times on a biweekly schedule
  tolerability: well tolerated
[2]; biweekly schedule
  safe dose: 4.5 mg/kg
[3]
  albumin binding in plasma: very rapid

## CC[C@H](C)[C@@H]([C@@H](CC(=O)N1CCC[C@H]1[C@H](OC)[C@@H](C)C(=O)N[C@H](C)[C@@H](O)c1ccccc1)OC)N(C)C(=O)[C@@H](NC(=O)[C@H](C(C)C)N(C)C)C(C)C [auristatin E]
[1]; 0.3 mg/kg eight times twice weekly
  antitumor effect: did not achieve any antitumor effect
[2]; 0.3 mg/kg once weekly for 4 weeks
  tolerability: well tolerated
[2]; 0.6 mg/kg once weekly, no animal survived after the second injection
  tolerability: high toxicity
[2]; 1.2 mg/kg once weekly, no animal survived after the first injection
  tolerability: high toxicity
[2]; injected biweekly for four weeks (total of eight injections)
  maximum tolerated dose (MTD): 0.3 mg/kg

## 2-(2-(1-(4-(((1S,2R)-2-((2R,3R)-3-((S)-1-((3R,4R,5S)-4-((S)-2-((R)-2-(dimethylamino)-3-methylbutanamido)-N,3-dimethylbutanamido)-3-methoxy-5-methylheptanoyl)pyrrolidin-2-yl)-3-methoxy-2-methylpropanamido)-1-phenylpropoxy)carbonyl)phenyl)ethylidene)hydrazine-1-carbonyl)-5-(6-(2,5-dioxo-2,5-dihydro-1H-pyrrol-1-yl)hexanamido)benzenesulfonic acid [AE-Ester-Sulf07]
[1]; [4]
  animals lost: four animals had to be removed from the study due to tumor necrosis
  body weight: no sign of body weight loss compared to the control
[1]; 1.9 mg/kg eight times twice weekly, day 19 until day 51
  tumor response: partial remission (partial remission >10-50%)
[1]; 1.9 mg/kg eight times twice weekly, day 54 until end of study on day 103
  tumor response: complete remission (complete remission <10%)
[1]; 1.9 mg/kg versus auristatin E 0.3 mg/kg, eight times twice weekly, day 37 to day 40
  p, antitumor efficacy versus auristatin E: < 0.001
[2]; 4.0 mg/kg once weekly
  side effect compared with the other groups: lowest side effect
[2]; 2.0, 2.2, 2.4 mg/kg twice per week and 4.0, 4.4, 4.8 mg/kg once per week over four weeks
  body weight change: No body weight change
[2]; all groups: 2.0, 2.2, 2.4 mg/kg twice per week and 4.0, 4.4, 4.8 mg/kg once per week
  appearance of skin irritation: 9 to 14 days
[2]; up to 2.0 mg/kg dosed twice weekly for four weeks
  tolerability: no evident sign of toxicity
[3]
  albumin binding in plasma: very rapid
